Laboratory results taken from BindingDB's records for doi:10.1021/jm950409c (University of Bari Aldo Moro, 1996).

How the values were obtained:
[1] = Inhibition of [3H]DTG binding to sigma receptor from guinea pig brain cortex membrane
[2] = Inhibitory activity against sigma receptor isolated from guinea pig brain cortex membrane using PCP as radioligand at a concentration of 10e-5 M
[3] = target: Sigma non-opioid intracellular receptor 1 (Cavia porcellus) (UniProt Q60492); assay: Inhibitory activity against sigma receptor isolated from guinea pig brain cortex membrane using [3H]DTG as radioligand
[4] = Inhibitory activity against 5-hydroxytryptamine 1A receptor isolated from rat hippocampus membranes membrane using [3H]5-HT as radioligand in the presence of 10e-6 M ketanserin as 5-HT2 blocker

Sequence of Sigma non-opioid intracellular receptor 1 (Cavia porcellus) (Q60492 whole entry, looked up): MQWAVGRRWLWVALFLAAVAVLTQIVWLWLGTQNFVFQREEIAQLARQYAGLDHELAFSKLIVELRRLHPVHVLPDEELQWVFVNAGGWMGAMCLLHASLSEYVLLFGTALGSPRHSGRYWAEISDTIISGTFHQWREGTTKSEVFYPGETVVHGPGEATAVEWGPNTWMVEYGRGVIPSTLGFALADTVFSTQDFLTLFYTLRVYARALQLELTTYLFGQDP

Ki [1] [nM] | Ki [2] [nM] | Ki [3] [nM] | Ki [4] [nM] | SMILES
> 877 | – | – | – | COc1cccc2c1CCCC2CCCN1CCNCC1 (stereo unspecified) [1-(3-(5-methoxy-1,2,3,4-tetrahydronaphthalen-1-yl)propyl)piperazine]
29 | – | – | – | COc1ccc2c(c1)C(CCCN1CCN(C3=NCCCC3)CC1)CCC2 (stereo unspecified) [1-[3-(7-Methoxy-1,2,3,4-tetrahydro-naphthalen-1-yl)-propyl]-4-(3,4,5,6-tetrahydro-pyridin-2-yl)-piperazine]
265 | 2130 | – | – | COc1cccc2c1CCCC2CCCNCCNc1ccccc1 (stereo unspecified) [N-[3-(5-Methoxy-1,2,3,4-tetrahydro-naphthalen-1-yl)-propyl]-N'-phenyl-ethane-1,2-diamine]
– | – | 139 | > 1430 | COc1cccc2c1CCC=C2CCCN1CCN(Cc2ccccc2)CC1 [1-Benzyl-4-[3-(5-methoxy-3,4-dihydro-naphthalen-1-yl)-propyl]-piperazine]
